This is an account of results in paper PMC4673153, “Discovery of benzo[e]pyridoindolones as kinase inhibitors that disrupt mitosis exit while erasing AMPK-Thr172 phosphorylation on the spindle” (Oncotarget, 2015).

Structures can show the parent of a compound that is named as a salt.

Common to all, as to assay type: biochemical
Assay [1] has as its target T1, aurora B kinase (Homo sapiens, UniProt Q96GD4).
T1 construct: gene AURKB
Kind of assay: in vitro kinase assay, recombinant enzyme (MRC Dundee).

In assay [2] the target is T2, Chk1 (Homo sapiens, UniProt O14757).
T2 construct: gene CHEK1
T2 sequence (O14757 1-476): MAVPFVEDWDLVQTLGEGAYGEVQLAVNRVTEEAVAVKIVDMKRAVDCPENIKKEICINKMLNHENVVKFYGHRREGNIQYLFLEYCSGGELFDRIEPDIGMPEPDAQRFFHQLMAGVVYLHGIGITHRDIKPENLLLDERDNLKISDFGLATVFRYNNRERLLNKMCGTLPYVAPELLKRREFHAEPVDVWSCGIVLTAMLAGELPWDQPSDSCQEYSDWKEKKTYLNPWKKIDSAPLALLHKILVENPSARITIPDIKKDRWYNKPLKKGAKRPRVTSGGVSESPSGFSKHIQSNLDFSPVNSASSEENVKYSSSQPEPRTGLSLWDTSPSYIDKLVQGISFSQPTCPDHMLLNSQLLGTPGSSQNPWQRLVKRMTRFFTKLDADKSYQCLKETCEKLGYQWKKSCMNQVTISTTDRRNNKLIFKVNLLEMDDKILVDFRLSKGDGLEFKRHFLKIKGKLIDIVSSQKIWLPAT
Described as above.

The target in assay [3] is T3, Tak1 (Homo sapiens, UniProt O43318).
T3 construct: gene MAP3K7
T3 sequence (O43318 1-606): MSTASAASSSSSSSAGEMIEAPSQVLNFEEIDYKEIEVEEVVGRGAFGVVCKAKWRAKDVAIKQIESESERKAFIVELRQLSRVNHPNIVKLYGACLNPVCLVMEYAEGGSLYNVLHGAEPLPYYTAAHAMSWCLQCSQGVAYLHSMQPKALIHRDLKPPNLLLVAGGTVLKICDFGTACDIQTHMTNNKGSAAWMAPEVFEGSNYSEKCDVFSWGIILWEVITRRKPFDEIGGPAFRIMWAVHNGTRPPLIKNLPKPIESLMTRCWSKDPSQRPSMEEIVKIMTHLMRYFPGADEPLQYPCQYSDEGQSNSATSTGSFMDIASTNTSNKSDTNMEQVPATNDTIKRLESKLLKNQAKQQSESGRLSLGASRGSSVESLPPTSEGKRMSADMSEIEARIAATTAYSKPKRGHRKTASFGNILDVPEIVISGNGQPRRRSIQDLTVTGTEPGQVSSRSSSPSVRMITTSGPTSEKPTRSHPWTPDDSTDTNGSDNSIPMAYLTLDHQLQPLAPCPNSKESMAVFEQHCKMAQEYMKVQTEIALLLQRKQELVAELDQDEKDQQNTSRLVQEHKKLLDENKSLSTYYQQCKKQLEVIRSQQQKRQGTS
T3 sequence (Q15750 1-504 partner): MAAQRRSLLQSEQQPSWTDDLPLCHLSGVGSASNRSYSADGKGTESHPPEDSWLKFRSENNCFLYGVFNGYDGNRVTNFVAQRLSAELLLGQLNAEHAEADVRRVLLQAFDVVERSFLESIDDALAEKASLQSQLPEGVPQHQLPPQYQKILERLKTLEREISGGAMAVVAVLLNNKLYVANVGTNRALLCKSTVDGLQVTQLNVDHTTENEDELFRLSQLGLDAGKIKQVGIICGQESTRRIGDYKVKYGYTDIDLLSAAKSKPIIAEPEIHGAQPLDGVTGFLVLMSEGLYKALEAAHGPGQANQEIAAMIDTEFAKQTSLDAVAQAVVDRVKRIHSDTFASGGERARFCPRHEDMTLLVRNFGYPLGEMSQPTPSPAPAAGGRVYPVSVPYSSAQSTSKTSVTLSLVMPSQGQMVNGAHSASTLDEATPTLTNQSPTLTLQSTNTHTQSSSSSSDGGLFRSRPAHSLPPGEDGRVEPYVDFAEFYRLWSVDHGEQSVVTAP
The description is as above.

Assay [4] deals with phosphorylase kinase. The assay is described as above.
Assay [5] addresses T4, CaMKKβ (Homo sapiens, UniProt Q96RR4).
T4 construct: gene CAMKK2
Put plainly: kinase panel profiling at […], recombinant enzyme (MRC Dundee).

Assay [6] has as its target Melk (Homo sapiens, UniProt Q14680). Kind of assay: in vitro kinase assay, recombinant enzyme (MRC Dundee).
The target of assay [7] is T5, ARK5/Nuak1 (Homo sapiens, UniProt O60285).
T5 sequence (O60285 1-661): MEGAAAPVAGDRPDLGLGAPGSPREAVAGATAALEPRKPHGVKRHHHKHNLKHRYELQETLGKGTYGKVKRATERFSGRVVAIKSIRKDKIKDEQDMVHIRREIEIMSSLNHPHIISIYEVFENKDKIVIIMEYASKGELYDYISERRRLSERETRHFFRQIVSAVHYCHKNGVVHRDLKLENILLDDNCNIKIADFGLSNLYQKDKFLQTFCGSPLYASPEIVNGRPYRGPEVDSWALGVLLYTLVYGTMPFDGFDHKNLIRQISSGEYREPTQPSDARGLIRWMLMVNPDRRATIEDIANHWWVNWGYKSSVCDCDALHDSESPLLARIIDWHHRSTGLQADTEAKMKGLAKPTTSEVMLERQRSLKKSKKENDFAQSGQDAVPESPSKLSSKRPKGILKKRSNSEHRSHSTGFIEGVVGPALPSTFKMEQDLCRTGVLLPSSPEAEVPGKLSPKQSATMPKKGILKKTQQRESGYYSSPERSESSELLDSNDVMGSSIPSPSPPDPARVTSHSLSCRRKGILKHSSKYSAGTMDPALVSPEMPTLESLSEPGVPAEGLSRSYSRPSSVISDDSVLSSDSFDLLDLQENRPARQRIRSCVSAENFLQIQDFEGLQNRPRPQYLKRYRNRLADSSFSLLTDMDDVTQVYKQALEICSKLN
The assay is described as above.

In assay [8] the target is T6, Chk2 (Homo sapiens, UniProt O96017).
T6 construct: gene CHEK2
T6 sequence (O96017 whole entry): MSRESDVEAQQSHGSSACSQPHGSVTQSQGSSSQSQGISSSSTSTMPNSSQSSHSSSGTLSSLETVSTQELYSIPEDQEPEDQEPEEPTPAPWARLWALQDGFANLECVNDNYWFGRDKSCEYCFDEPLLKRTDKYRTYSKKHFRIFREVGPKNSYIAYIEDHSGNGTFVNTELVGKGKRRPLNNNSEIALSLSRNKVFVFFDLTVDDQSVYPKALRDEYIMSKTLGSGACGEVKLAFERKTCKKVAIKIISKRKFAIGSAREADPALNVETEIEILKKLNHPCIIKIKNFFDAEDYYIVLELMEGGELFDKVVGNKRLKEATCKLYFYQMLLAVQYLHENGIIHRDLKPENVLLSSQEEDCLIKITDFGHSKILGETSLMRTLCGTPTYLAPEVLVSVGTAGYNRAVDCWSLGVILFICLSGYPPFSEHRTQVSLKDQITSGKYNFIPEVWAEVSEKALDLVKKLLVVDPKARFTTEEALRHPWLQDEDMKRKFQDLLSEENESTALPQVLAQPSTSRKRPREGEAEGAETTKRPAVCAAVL
The description is as above.

The target in assay [9] is T7, Flt1/V-EGFR1 (Homo sapiens, UniProt P17948).
T7 sequence (P17948 781-1338 limits assumed): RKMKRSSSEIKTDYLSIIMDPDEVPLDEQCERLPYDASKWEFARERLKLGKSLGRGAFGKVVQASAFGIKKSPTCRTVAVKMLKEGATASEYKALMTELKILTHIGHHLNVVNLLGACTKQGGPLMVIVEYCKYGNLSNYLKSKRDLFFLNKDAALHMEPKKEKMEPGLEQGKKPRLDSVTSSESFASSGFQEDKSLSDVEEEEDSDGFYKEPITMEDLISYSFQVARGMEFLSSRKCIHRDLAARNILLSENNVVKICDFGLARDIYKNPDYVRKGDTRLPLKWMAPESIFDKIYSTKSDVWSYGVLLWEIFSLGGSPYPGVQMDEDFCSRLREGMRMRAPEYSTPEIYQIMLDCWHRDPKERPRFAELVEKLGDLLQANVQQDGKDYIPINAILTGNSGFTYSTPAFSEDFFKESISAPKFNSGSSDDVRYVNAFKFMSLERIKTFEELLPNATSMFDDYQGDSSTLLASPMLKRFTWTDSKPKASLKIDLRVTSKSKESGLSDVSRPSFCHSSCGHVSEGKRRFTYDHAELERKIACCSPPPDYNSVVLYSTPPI
Described as above.

Assay [10] addresses Sik2 (Homo sapiens, UniProt Q9H0K1). The description is as above.

T4 sequence (Q96RR4 2-588): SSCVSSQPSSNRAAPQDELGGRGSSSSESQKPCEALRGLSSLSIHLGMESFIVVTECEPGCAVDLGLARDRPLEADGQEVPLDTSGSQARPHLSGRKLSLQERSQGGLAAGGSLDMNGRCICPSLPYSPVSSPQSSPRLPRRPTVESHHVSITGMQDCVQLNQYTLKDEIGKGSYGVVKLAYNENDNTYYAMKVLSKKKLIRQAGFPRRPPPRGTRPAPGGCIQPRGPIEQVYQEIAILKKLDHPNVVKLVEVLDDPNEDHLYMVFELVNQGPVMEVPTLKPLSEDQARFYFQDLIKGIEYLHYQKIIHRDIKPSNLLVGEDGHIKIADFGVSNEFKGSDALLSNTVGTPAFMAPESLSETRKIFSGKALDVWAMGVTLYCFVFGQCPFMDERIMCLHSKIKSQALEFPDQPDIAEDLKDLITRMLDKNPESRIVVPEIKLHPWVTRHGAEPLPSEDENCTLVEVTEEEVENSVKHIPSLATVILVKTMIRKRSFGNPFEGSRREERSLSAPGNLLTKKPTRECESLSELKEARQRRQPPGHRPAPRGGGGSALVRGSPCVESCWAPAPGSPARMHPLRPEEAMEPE
T1 sequence (Q96GD4 whole entry): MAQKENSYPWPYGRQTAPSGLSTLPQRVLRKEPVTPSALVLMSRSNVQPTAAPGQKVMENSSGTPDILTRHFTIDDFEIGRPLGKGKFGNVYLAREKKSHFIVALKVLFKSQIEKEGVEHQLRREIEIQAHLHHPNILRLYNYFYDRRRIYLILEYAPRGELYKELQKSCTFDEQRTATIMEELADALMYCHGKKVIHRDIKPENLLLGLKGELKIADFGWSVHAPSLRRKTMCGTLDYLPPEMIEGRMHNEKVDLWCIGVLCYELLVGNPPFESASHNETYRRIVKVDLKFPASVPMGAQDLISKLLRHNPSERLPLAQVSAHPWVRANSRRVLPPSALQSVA
Chain of Melk (Q14680 whole entry): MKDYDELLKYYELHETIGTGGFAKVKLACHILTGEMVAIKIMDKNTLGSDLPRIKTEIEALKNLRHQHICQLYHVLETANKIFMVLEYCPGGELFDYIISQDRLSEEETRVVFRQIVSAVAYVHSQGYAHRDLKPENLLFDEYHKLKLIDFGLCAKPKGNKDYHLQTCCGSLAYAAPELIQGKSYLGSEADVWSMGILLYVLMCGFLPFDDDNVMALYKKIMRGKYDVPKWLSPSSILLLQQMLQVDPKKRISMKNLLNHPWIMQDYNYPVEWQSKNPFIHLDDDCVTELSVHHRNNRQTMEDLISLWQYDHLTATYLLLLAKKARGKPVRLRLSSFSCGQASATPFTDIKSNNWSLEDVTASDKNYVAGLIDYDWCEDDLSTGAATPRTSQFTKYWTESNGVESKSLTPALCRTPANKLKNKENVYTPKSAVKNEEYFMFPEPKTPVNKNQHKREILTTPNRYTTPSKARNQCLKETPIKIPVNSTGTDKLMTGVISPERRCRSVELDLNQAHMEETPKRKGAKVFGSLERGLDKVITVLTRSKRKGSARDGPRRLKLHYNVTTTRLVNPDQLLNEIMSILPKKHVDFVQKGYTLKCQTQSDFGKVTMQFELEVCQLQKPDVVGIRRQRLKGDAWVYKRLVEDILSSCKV
Chain of Sik2 (Q9H0K1 whole entry): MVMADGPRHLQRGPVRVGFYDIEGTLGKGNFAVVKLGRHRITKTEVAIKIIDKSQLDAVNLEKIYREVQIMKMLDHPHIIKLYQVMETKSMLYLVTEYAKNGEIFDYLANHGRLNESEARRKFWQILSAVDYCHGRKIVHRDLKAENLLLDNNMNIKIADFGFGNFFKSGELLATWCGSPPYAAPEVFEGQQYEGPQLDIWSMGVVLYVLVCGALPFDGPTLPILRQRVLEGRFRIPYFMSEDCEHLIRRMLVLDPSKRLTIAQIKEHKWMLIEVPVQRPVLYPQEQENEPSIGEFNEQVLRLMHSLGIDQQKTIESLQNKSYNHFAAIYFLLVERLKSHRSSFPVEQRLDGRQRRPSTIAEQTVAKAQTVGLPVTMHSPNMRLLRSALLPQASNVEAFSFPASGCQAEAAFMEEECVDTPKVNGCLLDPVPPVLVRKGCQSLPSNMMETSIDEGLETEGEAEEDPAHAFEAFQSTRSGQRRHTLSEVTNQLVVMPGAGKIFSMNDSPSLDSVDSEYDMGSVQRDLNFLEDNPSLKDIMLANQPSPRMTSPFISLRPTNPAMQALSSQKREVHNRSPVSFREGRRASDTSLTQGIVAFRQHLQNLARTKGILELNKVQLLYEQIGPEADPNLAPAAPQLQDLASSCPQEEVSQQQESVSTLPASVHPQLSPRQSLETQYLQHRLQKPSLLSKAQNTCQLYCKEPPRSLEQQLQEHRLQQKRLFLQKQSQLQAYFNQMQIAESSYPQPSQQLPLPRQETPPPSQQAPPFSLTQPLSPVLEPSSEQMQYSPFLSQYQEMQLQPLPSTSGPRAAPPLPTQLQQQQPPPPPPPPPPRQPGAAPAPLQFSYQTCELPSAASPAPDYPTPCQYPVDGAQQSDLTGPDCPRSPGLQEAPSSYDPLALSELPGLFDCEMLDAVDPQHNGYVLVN

For `Cc1c[nH]c(=O)c2c1[nH]c1ccc3cc(OCCN4CCCCC4)ccc3c12` [C5M, 3-(2-(Piperidin-1-yl)ethoxy)-8-methyl-7H, 10H-benzo[e]pyrido(4,3-b)indol-11-one maleate], the IC50 was 118 nM in [1]; 13.6 nM in assay [2]; 6 nM in assay [3]; 18.5 nM in [4]; 13.3 nM in assay [6]; 4.8 nM in [7]. Moreover, the half-maximal inhibitory concentration (IC50) in [8] was 13.6 nM; in assay [9], 37 nM; in assay [10] it was 12.4 nM. Further, the “kinase panel profiling at 250 nM, recombinant enzyme (MRC Dundee)” value in [5] is “Among the fifteen best targets, we noted the presence of several AMPK-related kinases”.
